According to paper PMC4581192, “Fenarimol, a Pyrimidine-Type Fungicide, Inhibits Brassinosteroid Biosynthesis” (International Journal of Molecular Sciences, 2015):

Biological target: T1, CYP90D1 (Arabidopsis thaliana, UniProt Q94IA6)
T1 construct: DNA fragment encoding CYP90D1 mature protein; expressed from pCold-GST in E. coli, fusion protein cleaved with HRV3C protease
T1 sequence (Q94IA6 1-491): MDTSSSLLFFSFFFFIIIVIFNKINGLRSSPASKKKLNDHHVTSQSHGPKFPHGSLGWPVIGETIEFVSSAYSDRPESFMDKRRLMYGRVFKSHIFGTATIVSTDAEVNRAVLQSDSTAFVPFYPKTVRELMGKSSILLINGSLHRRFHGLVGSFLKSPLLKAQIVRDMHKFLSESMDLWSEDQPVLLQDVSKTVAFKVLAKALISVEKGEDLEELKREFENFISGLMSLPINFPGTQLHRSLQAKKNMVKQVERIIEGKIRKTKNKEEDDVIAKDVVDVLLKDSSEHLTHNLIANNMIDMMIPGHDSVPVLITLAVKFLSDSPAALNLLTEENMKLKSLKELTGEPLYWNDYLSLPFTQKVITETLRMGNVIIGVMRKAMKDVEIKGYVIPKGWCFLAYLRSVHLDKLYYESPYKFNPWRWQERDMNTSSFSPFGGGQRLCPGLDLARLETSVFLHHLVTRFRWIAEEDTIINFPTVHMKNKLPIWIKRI
Test: optical difference spectroscopy (type II spectral titration) of purified recombinant CYP90D1
Format: binding

OC(c1ccc(Cl)cc1)(c1cncnc1)c1ccccc1Cl (stereo not shown) [FM, fenarimol]
Kd: 790 nM
